{"source": "patent US20080318931A1", "about": "“Treatment of Disorders and Diseases of the Colon” (priority 2004, published 2008)", "key": {"human lymphocytes (PBMC)": {"test_system": "human lymphocytes (PBMC)", "assay": "PHA-induced human lymphocyte proliferation, alamar blue", "type": "cell-based", "conditions": "PHA 2.5 μg/ml, 48 hours", "description": "Human blood mononuclear cells (PBMC) were isolated from whole blood of 3 healthy volunteers using Ficoll-Paque gradient (Amersham Sweden). Lymphocyte proliferation was induced by exposure of 1×10^6 cells/well to phytohemagglutinin (PHA) (2.5 μg/ml). Cells were exposed to PHA and treated with vehicle or with paroxetine (2.5-10.0 μM). Cell viability was assessed 48 hours post exposure to paroxetine (2.5-10.0 μM) using Alamar blue reagent (Wildflower, Santa Fe, N. Mex., USA) according to Nociari et al (1998)."}, "[1]": {"test_system": "TH1 cytokines TNF-α, IL2 and INFγ", "assay": "TH1 cytokine secretion (TNF-α, IL2, INFγ) from Con-A-induced splenocytes, ELISA", "type": "cell-based, mouse", "conditions": "2.5-10 μM, 48 hours, 1×10^6 cells/well", "description": "Effect of paroxetine, (SSRI) and clomipramine (TCA) as compared to dexamethasone on Con-A-induced splenocyte proliferation (alamar blue method), and splenocyte-induced secretion of TH1 cytokines TNF-α, IL2 and INFγ, 1×10^6 cells/well, was measured 48 hours after exposure to drugs (2.5-10 μM).\nCytokines were determined in the supernatant of the splenocyte specimens using an ELISA kit and protocol (Reagents by Cytolab). […] The pattern observed resembles that of dexamethasone."}, "bcl-2": {"test_system": "bcl-2", "assay": "bcl-2 expression in HT29 cells, western blot", "type": "cell-based, human", "conditions": "10 and 20 μM, 24 hr", "description": "(§1) The effect of paroxetine and sertraline on the expression of bcl-2 and C-jun was evaluated in human colon HT29 cell-line 24 hr after drug administration, using western blot analysis for C-jun and bcl-2 and specific antibodies."}, "Cox-2": {"test_system": "Cox-2", "assay": "Cox-2 expression in human PHA activated lymphocytes, Western blot", "type": "cell-based", "conditions": "5 μM, PHA 15 μM", "description": "Total protein lysates from human lymphocyte culture were prepared by agitation with lysis buffer (20 mM Tris pH 7.5, 150 mM NaCl, 1 mM EDTA, 1% Nonidet P-40, 0.5% sodium deoxycholate, and 2 mM Na2VO4) for 1 h at 4° C. The proteins were cleared by centrifugation at 14,000×g for 20 min at 4° C. Protein concentration was determined using BCA kit (Pierce, Ill., USA). For Western blot analysis, 30 μg-protein from each sample were loaded in 7.5% SDS-PAGE. Electroblotted proteins were detected using specific anti COX-2 polyclonal antibody (Cayman chemical company, Michigan, USA) or an ti-Stat3 monoclonal antibody (Transduction Laboratories Lexington UK). Bound antibodies were visualized using chemiluminescence reaction."}, "[2]": {"test_system": "Con-A activated splenocytes", "conditions": "5 μM", "experimental": "(§2) LPS (manufactured by Sigma St. Louis Mo., USA, cat no L2880) was administered at 100 μg/mouse×2, on day 7 and day 14)."}, "C-jun": {"test_system": "C-jun", "assay": "C-jun expression in HT29 cells, western blot", "type": "cell-based, human", "conditions": "10 and 20 μM, 24 hr", "description": "as §1"}, "[3]": {"test_system": "Con-A activated splenocytes", "assay": "cells", "conditions": "Mus musculus, Splenocyte, read-out: inhibition of viability, splenocytes from naïve animals", "experimental": "as §2"}}, "note": "pIC50: −log10 of the molar value.", "data": [{"smiles": "Fc1ccc([C@@H]2CCNC[C@H]2COc2ccc3c(c2)OCO3)cc1", "note": "[paroxetine]", "values": [{"measurement": "pIC50", "setting": "human lymphocytes (PBMC)", "value": "5.00 to 5.30"}, {"measurement": "lymphocyte-induced pro-inflammatory cytokine secretion", "setting": "[1]", "value": "decrease"}, {"measurement": "expression of bcl-2", "setting": "bcl-2", "value": "inhibition"}, {"measurement": "PHA-induced increase in Cox-2 expression", "setting": "Cox-2", "value": "antagonized"}, {"measurement": "response of splenocytes from LPS mice treated in vivo with sertraline", "setting": "[2]; LPS mice + sertraline 5 mg/kg×3/week two weeks", "value": "more responsive"}, {"measurement": "response of splenocytes from LPS mice", "setting": "[2]; LPS-treated mice", "value": "in a manner similar to the naive animals"}, {"measurement": "expression of C-jun", "setting": "C-jun", "value": "stimulation"}, {"measurement": "cytotoxicity at 5 µM", "setting": "[3]", "value": 10, "unit": "%"}]}]}
